Here are results for 30 compounds from patent US8569267B2, “Tetracyclic tetrahydrofuran derivatives containing cyclic amine side chain” (Janssen Pharmaceutica, NV, priority 2005, dated 2013).

Assay [1] has as its target T1, human cloned 5-HT2A receptor, expressed in L929 cells (Homo sapiens, UniProt P28223).
T1 construct: expressed in transfected cells; host or cells: L929 cells
Nature of the assay: In vitro binding affinity for 5-HT2A receptor ([125I]R91150 radioligand binding). Conditions: human cloned 5-HT2A receptor in L929 cells, [125I]R91150; read-out: 5-HT2A pIC50 (converted). A digest of the protocol:
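Competition radioligand binding to human cloned 5-HT2A receptor expressed in L929 cells, using [125I]R91150 with test compound at various concentrations. At equilibrium, receptor-bound radioactivity was separated from free and counted. Affinity reflects inhibition of radioligand binding.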

The target of assay [2] is T2, human cloned 5-HT2C receptor, expressed in CHO cells (Homo sapiens, UniProt P28335).
T2 construct: expressed in transfected cells; host or cells: CHO cells
T2 sequence (P28335 33-458): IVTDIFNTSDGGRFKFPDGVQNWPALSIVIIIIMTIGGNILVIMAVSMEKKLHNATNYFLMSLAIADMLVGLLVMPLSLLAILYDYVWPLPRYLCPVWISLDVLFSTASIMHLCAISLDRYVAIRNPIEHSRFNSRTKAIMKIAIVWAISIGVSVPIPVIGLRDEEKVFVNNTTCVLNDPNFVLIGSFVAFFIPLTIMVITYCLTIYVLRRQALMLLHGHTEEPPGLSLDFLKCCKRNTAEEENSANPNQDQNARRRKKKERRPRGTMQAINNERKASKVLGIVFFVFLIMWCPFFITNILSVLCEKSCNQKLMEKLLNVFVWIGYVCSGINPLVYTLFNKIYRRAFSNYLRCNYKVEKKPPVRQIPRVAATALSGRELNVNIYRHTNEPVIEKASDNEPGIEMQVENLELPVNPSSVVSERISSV
The experiment in a line: In vitro binding affinity for 5-HT2C receptor ([3H]mesulergine radioligand binding). The conditions noted are these: human cloned 5-HT2C receptor, read-out: 5-HT2C pIC50 (converted). A digest of the protocol: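 Competition radioligand binding: varying test-compound concentrations incubated with receptor preparation and radioligand to binding equilibrium. Bound radioactivity separated from free and counted; affinity inferred from concentration-dependent inhibition of radioligand binding.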

The target of assay [3] is T3, human Dopamine D2L receptor (Homo sapiens, UniProt P14416).
T3 construct: expressed in transfected cells; host or cells: CHO cells
The experiment in a line: In vitro binding affinity for human D2L receptor ([3H]Spiperone binding). Conditions: human D2L receptor-transfected CHO cell membranes, read-out: D2L pIC50 (converted). A digest of the protocol:
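Membranes from CHO cells transfected with the receptor were incubated with [3H]Spiperone (diluted to 2 nmol/L before addition) and compound for 30 min at 37° C. Buffer was Tris-HCl, pH 7.7, with NaCl, CaCl2, MgCl2 and KCl, and non-specific binding was defined with 10^−6 mol/l Butaclamol. Bound radioactivity was collected by filtration, counted by scintillation, and competition curves calculated as percent specific binding.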

Assay [4] has as its target T4, NET (norepinephrine transporter) (Rattus norvegicus, UniProt Q63380).
T4 construct: Cortex from rat brain was collected and homogenised; from tissue; host or cells: rat brain cortex
Nature of the assay: In vitro determination of NET reuptake inhibition ([3H]Nixosetine binding, rat brain cortex). The conditions noted are these: rat brain cortex, read-out: NET pIC50 (converted). In a few lines: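 Rat cortex homogenised in Tris 50 mM, NaCl 120 mM, KCl 5 mM, pH 7.4 was used for competition binding against [3H]nisoxetine. Bound radioligand was collected by filtration on GF/B filters and counted by scintillation. Percentage specific binding and competition curves were derived.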

Bounds are passed on as bounds.

T4 sequence (Q63380 1-617): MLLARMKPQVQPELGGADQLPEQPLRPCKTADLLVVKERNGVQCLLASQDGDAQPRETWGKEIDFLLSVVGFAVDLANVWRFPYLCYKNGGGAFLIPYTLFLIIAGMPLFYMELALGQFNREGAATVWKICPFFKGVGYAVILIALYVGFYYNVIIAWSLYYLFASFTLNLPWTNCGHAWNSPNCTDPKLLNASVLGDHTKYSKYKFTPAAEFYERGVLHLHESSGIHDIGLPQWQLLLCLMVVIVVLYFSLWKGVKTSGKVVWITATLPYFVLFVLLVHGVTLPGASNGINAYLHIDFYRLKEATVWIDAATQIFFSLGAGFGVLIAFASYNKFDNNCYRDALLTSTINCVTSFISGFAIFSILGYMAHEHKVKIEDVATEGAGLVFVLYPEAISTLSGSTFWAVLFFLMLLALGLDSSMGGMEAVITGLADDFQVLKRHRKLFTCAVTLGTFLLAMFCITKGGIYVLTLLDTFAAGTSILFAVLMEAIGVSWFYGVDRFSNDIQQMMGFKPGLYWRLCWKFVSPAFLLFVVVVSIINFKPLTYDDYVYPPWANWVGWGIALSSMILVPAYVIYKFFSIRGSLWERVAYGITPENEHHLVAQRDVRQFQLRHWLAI
T1 sequence (P28223 whole entry): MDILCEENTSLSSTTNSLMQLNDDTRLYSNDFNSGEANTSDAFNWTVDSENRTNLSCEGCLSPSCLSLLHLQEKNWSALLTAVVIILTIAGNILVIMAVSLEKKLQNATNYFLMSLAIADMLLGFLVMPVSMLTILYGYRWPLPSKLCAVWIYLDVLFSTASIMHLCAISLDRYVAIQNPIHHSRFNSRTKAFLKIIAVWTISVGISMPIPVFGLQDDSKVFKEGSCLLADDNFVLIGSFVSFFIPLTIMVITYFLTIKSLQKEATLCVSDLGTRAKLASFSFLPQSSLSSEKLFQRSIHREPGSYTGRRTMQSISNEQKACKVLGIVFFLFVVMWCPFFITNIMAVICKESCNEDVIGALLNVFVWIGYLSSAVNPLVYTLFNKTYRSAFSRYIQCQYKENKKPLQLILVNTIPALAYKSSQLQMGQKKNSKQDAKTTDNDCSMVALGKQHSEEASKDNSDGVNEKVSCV
T3 sequence (P14416 whole entry): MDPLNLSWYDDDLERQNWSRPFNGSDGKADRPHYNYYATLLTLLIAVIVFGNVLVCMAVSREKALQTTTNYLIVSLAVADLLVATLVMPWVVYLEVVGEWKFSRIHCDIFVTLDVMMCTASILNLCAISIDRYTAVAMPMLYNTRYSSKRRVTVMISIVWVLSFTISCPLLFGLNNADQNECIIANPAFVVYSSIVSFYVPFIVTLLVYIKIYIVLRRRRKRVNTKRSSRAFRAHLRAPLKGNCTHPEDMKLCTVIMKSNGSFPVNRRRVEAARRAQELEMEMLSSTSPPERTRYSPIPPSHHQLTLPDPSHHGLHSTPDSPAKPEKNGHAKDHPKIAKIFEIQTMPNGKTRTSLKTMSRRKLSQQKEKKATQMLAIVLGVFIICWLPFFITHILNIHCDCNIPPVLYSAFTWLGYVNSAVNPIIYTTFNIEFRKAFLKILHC

As to `CCCCNC(=O)N1CCN(CC2CC3c4ccccc4Cc4ccc(F)cc4C3O2)CC1` (stereo not drawn) [Compound 89], the IC50 was 2.82 nM in assay [1], 6.61 nM in assay [2], 38.9 nM in assay [3] and above 10 µM in assay [4].

Regarding `CCC(C)(C)NC(=O)N1CCN(CC2CC3c4ccccc4Cc4ccc(F)cc4C3O2)CC1` (stereo not drawn) [Compound 90], the IC50 in assay [1] was 1.62 nM; in assay [2], 20 nM; in assay [3] it was 30.9 nM; in assay [4], 4.47 µM.

Take `COC(CNC(=O)N1CCN(CC2CC3c4ccccc4Cc4ccc(F)cc4C3O2)CC1)OC` (stereo not drawn) [Compound 91]: the IC50 is 1.15 nM in assay [1], 14.8 nM in assay [2], 37.2 nM in assay [3] and 4.07 µM in assay [4].

As for `CCOC(=O)CNC(=O)N1CCN(CC2CC3c4ccccc4Cc4ccc(F)cc4C3O2)CC1` (stereo not drawn) [Compound 92], the IC50 is 2.57 nM in assay [1], 15.5 nM in assay [2], 43.7 nM in assay [3] and above 10 µM in assay [4].

On to `O=C(NCCCc1ccccc1)N1CCN(CC2CC3c4ccccc4Cc4ccc(F)cc4C3O2)CC1` (stereo not drawn) [Compound 93], for which the IC50 is 2.57 nM in assay [1], 5.01 nM in assay [2], 11.7 nM in assay [3] and 4.17 µM in assay [4].

Consider `O=C(NC1CC1)N1CCN(CC2CC3c4ccccc4Cc4ccc(F)cc4C3O2)CC1` (stereo not drawn) [Compound 94, [2R-(2α, 3aα, 12bβ)]4-(11-fluoro-3,3a,8,12b-tetrahydro-2H-1-oxa-dibenzo[e,h]-azulen-2-ylmethyl)-piperazine-1-carboxylic acid cyclopropylamide.oxalate (1:1)], for which the IC50 is 0.389 nM in assay [1], 2.19 nM in assay [2], 35.5 nM in assay [3] and 10.7 µM in assay [4].

Consider `O=C(NC1CCCCC1)N1CCN(CC2CC3c4ccccc4Cc4ccc(F)cc4C3O2)CC1` (stereo not drawn) [Compound 95], for which the IC50 was 1.74 nM in assay [1], 7.59 nM in assay [2], 69.2 nM in assay [3] and 9.55 µM in assay [4].

For the compound `COc1ccc(CNC(=O)N2CCN(CC3CC4c5ccccc5Cc5ccc(F)cc5C4O3)CC2)c(OC)c1` (stereo not drawn) [Compound 96], the IC50 in assay [1] is 16.2 nM; in assay [2] it was 6.76 nM; in assay [3], 8.91 nM; in assay [4], above 10 µM.

On to `O=C(NC1CCCCCCC1)N1CCN(C[C@H]2C[C@@H]3c4ccccc4Cc4ccc(F)cc4[C@@H]3O2)CC1` [Compound 98], for which the IC50 in assay [1] is 3.39 nM; in assay [2] it was 19.5 nM; in assay [3], 42.7 nM; in assay [4] it was 9.55 µM.

`O=C(NCc1ccc(F)cc1)N1CCN(CC2CC3c4ccccc4Cc4ccc(F)cc4C3O2)CC1` (stereo not drawn) [Compound 99]: the IC50 in assay [1] is 3.16 nM; in assay [2], 8.13 nM; in assay [3], 11.5 nM; in assay [4] it was above 10 µM.

`O=C(NCc1cccc(C(F)(F)F)c1)N1CCN(CC2CC3c4ccccc4Cc4ccc(F)cc4C3O2)CC1` (stereo not drawn) [Compound 101]: the IC50 in assay [1] was 5.75 nM; in assay [2], 12 nM; in assay [3], 17.4 nM; in assay [4], 8.91 µM.

Regarding `CS(=O)(=O)N1CCN(CC2CC3c4ccccc4Cc4ccc(F)cc4C3O2)CC1` (stereo not drawn) [Compound 102], the IC50 in assay [1] was 4.68 nM; in assay [2] it was 12.6 nM; in assay [3] it was 10.7 nM; in assay [4], above 10 µM.

As for `CCS(=O)(=O)N1CCN(CC2CC3c4ccccc4Cc4ccc(F)cc4C3O2)CC1` (stereo not drawn) [Compound 103], the IC50 in assay [1] is 7.76 nM; in assay [2] it was 50.1 nM; in assay [3], 19.5 nM; in assay [4] it was above 10 µM.

Regarding `C=CS(=O)(=O)N1CCN(CC2CC3c4ccccc4Cc4ccc(F)cc4C3O2)CC1` (stereo not drawn) [Compound 104], the IC50 in assay [1] was 8.32 nM; in assay [2] it was 28.2 nM; in assay [3] it was 30.9 nM; in assay [4], above 10 µM.

Take `O=S(=O)(Cc1ccccc1)N1CCN(CC2CC3c4ccccc4Cc4ccc(F)cc4C3O2)CC1` (stereo not drawn) [Compound 105]: the IC50 is 4.68 nM in assay [1], 30.9 nM in assay [2], 4.07 nM in assay [3] and above 10 µM in assay [4].

On to `O=S(=O)(c1ccccc1)N1CCN(CC2CC3c4ccccc4Cc4ccc(F)cc4C3O2)CC1` (stereo not drawn) [Compound 106], for which the IC50 in assay [1] is 16.6 nM; in assay [2], 61.7 nM; in assay [3], 44.7 nM; in assay [4], 9.55 µM.

Regarding `Cc1ccc(S(=O)(=O)N2CCN(CC3CC4c5ccccc5Cc5ccc(F)cc5C4O3)CC2)cc1` (stereo not drawn) [Compound 107], the IC50 in assay [1] was 83.2 nM; in assay [2], 331 nM; in assay [3], 81.3 nM; in assay [4], above 10 µM.

Take `CCCCNC(=S)N1CCN(C[C@H]2C[C@@H]3c4ccccc4Cc4ccc(F)cc4[C@@H]3O2)CC1` [Compound 108]: the IC50 in assay [1] was 4.57 nM; in assay [2], 16.2 nM; in assay [3], 29.5 nM; in assay [4], 3.24 µM.

As for `CC(C)(C)NC(=S)N1CCN(CC2CC3c4ccccc4Cc4ccc(F)cc4C3O2)CC1` (stereo not drawn) [Compound 109], the IC50 in assay [1] is 14.5 nM; in assay [2] it was 38.9 nM; in assay [3], 132 nM; in assay [4] it was 0.263 µM.

For the compound `CCOC(=O)CNC(=S)N1CCN(CC2CC3c4ccccc4Cc4ccc(F)cc4C3O2)CC1` (stereo not drawn) [Compound 110], the IC50 is 6.17 nM in assay [1], 47.9 nM in assay [2], 36.3 nM in assay [3] and 5.75 µM in assay [4].

Consider `O=C(NC(=S)N1CCN(CC2CC3c4ccccc4Cc4ccc(F)cc4C3O2)CC1)c1ccccc1` (stereo not drawn) [Compound 111], for which the IC50 in assay [1] is 3.89 nM; in assay [2] it was 9.77 nM; in assay [3], 27.5 nM; in assay [4] it was 3.09 µM.

For `COc1ccc(NC(=S)N2CCN(CC3CC4c5ccccc5Cc5ccc(F)cc5C4O3)CC2)cc1` (stereo not drawn) [Compound 112], the IC50 was 3.31 nM in assay [1], 21.9 nM in assay [2], 20.4 nM in assay [3] and 0.933 µM in assay [4].

As for `Fc1ccc2c(c1)C1OC(CN3CCN(C(=S)NCc4ccccc4)CC3)CC1c1ccccc1C2` (stereo not drawn) [Compound 113], the IC50 in assay [1] is 11 nM; in assay [2], 24 nM; in assay [3], 50.1 nM; in assay [4] it was 2.4 µM.

With `Fc1ccc2c(c1)C1OC(CN3CCN(C(=S)NC4CCCCC4)CC3)CC1c1ccccc1C2` (stereo not drawn) [Compound 114], the IC50 in assay [1] is 6.17 nM; in assay [2] it was 20.9 nM; in assay [3] it was 45.7 nM; in assay [4], 1.1 µM.

As for `Fc1ccc2c(c1)C1OC(CN3CCN(C(=S)Nc4ccccc4)CC3)CC1c1ccccc1C2` (stereo not drawn) [Compound 115], the IC50 in assay [1] was 7.41 nM; in assay [2], 22.4 nM; in assay [3], 112 nM; in assay [4], 0.49 µM.

Turning to `COc1ccc(N2CCN(CC3CC4c5ccccc5Cc5ccc(F)cc5C4O3)CC2)cc1` (stereo not drawn) [Compound 116], the IC50 in assay [1] is 9.77 nM; in assay [2], 20 nM; in assay [3] it was 37.2 nM; in assay [4] it was 7.24 µM.

On to `Fc1ccc2c(c1)C1OC(CN3CCN(c4ccccn4)CC3)CC1c1ccccc1C2` (stereo not drawn) [Compound 117], for which the IC50 was 1.48 nM in assay [1], 2.51 nM in assay [2], 15.5 nM in assay [3] and 4.57 µM in assay [4].

As to `COc1cccc(N2CCN(CC3CC4c5ccccc5Cc5ccc(F)cc5C4O3)CC2)n1` (stereo not drawn) [Compound 118], the IC50 in assay [1] was 4.9 nM; in assay [2], 7.59 nM; in assay [3] it was 26.3 nM; in assay [4], 2.82 µM.

Take `Fc1ccc2c(c1)[C@@H]1O[C@@H](CN3CCN(c4cccc(C(F)(F)F)n4)CC3)C[C@@H]1c1ccccc1C2` [Compound 119]: the IC50 was 10.2 nM in assay [1], 51.3 nM in assay [2], 158 nM in assay [3] and 4.07 µM in assay [4].

For `Fc1ccc2c(c1)C1OC(CN3CCN(c4ccc(C(F)(F)F)cn4)CC3)CC1c1ccccc1C2` (stereo not drawn) [Compound 120], the IC50 is 35.5 nM in assay [1], 87.1 nM in assay [2], 363 nM in assay [3] and above 10 µM in assay [4].
